Data: patent US20230257372A1 (CHONG KUN DANG PHARMACEUTICAL CORP., priority 2020, published 2023)

Assays:
human recombinant HDAC1 = biological target: T1, human recombinant HDAC1 (Homo sapiens, UniProt Q13547); assay: HDAC1 enzyme activity inhibition (HDAC Fluorimetric Drug Discovery Kit); assay type: biochemical; details: human recombinant HDAC1; IC50 calculated with GraphPad Prism; read-out: HDAC1
T1 construct: purchased Enzo Life Science, Inc. BML-SE456
Method in brief: (§1)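 Fluorimetric deacetylase read-out. 5-fold compound dilutions; […] enzyme, 10 μM substrate; 30° C, 60 min; developer 30 min.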

human recombinant HDAC6 = biological target: T2, human recombinant HDAC6 (Homo sapiens, UniProt Q9UBN7); assay: HDAC6 enzyme activity inhibition (HDAC Fluorimetric Drug Discovery Kit); assay type: biochemical; details: for HDAC6 selectivity (fold): HDAC1 IC50 / HDAC6 IC50; for IC50: human recombinant HDAC6, IC50 calculated with GraphPad Prism
T2 construct: purchased Calbiochem Inc. 382180
T2 sequence (Q9UBN7 1-1215): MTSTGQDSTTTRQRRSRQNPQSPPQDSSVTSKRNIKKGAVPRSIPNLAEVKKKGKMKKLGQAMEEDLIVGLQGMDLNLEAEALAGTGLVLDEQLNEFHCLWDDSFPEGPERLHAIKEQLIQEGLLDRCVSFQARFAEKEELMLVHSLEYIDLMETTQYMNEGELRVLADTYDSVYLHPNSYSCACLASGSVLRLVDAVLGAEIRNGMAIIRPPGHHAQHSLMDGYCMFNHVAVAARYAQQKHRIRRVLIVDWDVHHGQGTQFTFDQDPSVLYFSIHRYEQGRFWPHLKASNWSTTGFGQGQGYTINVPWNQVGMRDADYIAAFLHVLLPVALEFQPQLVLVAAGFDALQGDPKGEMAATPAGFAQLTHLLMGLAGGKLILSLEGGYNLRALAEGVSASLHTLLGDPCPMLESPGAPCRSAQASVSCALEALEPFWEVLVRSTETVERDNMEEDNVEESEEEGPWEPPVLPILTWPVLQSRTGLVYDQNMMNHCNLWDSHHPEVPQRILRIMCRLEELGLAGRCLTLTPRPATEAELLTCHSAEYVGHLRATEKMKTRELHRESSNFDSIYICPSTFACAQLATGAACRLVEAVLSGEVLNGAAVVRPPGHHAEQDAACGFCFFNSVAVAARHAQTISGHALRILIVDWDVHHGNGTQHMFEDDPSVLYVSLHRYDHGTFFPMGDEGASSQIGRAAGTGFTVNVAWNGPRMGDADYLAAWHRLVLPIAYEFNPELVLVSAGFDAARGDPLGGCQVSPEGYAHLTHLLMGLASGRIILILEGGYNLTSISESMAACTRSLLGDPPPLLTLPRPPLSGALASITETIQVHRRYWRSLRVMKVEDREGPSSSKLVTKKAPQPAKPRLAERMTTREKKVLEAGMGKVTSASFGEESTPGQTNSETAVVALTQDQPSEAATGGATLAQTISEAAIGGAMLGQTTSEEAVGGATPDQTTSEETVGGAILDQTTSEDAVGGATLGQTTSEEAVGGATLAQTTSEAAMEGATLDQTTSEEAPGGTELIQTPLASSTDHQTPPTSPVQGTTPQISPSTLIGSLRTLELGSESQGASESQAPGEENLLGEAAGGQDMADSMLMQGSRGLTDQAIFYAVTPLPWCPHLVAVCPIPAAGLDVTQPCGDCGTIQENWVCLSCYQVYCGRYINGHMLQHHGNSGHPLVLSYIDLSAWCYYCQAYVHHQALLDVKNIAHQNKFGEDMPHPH
Method in brief: as §1

[1] = system: hippocampal neurons from a Sprague-Dawley (SD) rat fetus; assay: Effect of HDAC6-specific inhibitor on axonal transport of mitochondria in amyloid-beta treated neurons; assay type: cell-based; details: transport velocity of mitochondria in neuronal axon after normalization; vehicle = 100%, amyloid beta treatment group = 0%; compound treatment for three hours
Description: On the 17th to 18th days (E17-18) of insemination, the hippocampal neurons from a Sprague-Dawley (SD) rat fetus were cultured in a culture container for imaging, which had been coated with extracellular matrix, and were treated with amyloid-beta protein fragments at a concentration of […]. In 24 hours later, the neurons were treated with the compound on the 8th day of in vitro culture. In three hours later, the resulting neurons were treated with MitoTracker Red CMXRos (Life Technologies, NY, USA) for last five minutes to stain mitochondria. An image on the axonal transport of stained neuron mitochondria was taken with a confocal microscope (Leica SP8; Leica microsystems, UK) at an interval of one second for one minute to measure a transport velocity of each mitochondria per second with an IMARIS analysis program (BITPLANE, Zurich, Switzerland).
In result, after setting a section, in which the group treated with amyloid-beta had shown a significant decrease in the transport velocity of mitochondria compared to a vehicle, it was confirmed for 1,3,4-oxadiazole triazol derivative compounds of the present invention, stereoisomers thereof or pharmaceutically acceptable salts thereof that the vehicles is represented as 100%, the amyloid beta treatment group is represented as 0%, a velocity distribution of the compound after normalization is represented as *, 0%˜50%; **, 50%˜100%; ***, >100%.

T1 sequence (Q13547 whole entry): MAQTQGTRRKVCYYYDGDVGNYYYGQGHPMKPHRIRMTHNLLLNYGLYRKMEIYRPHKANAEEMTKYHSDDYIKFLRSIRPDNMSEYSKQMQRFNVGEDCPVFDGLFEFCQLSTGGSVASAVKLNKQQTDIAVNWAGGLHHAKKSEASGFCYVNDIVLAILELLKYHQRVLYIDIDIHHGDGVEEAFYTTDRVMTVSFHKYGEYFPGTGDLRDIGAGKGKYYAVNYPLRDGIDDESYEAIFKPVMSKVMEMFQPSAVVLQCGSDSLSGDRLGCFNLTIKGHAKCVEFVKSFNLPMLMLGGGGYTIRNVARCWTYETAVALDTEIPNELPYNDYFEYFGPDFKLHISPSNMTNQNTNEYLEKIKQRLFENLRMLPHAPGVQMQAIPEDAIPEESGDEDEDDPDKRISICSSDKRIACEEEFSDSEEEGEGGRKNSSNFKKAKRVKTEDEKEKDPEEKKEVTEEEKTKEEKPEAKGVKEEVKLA

IC50 (human recombinant HDAC1) | HDAC6 selectivity (fold) (human recombinant HDAC6) | IC50 (human recombinant HDAC6) | SMILES | Velocity distribution (%) [1]
> 50000 nM | 2415 fold | 20.7 nM | FC(F)c1nnc(-c2ccc(Cn3cc(-c4cccs4)nn3)nc2)o1 [Compound 3902, 2-(difluoromethyl)-5-(6-((4-(thiophen-2-yl)-1H-1,2,3-triazol-1-yl)methyl)pyridin-3-yl)-1,3,4-oxadiazole] | *** (***, >100%)
> 50000 nM | 1754 fold | 28.5 nM | FC(F)c1nnc(-c2ccc(Cn3cc(-c4cccc(CN5CCOCC5)c4)nn3)nc2)o1 [Compound 3916, 4-(3-(1-((5-(5-(difluoromethyl)-1,3,4-oxadiazol-2-yl)pyridin-2-yl)methyl)-1H-1,2,3-triazol-4-yl)benzyl)morpholine] | *** (***, >100%)
> 50000 nM | 7462 fold | 6.7 nM | FC(F)c1nnc(-c2ccc(Cn3cc(-c4ccc5c(CN6CCOCC6)c[nH]c5c4)nn3)nc2)o1 [Compound 3944, 4-((6-(1-((5-(5-(difluoromethyl)-1,3,4-oxadiazol-2-yl)pyridin-2-yl)methyl)-1H-1,2,3-triazol-4-yl)-1H-indol-3-yl)methyl)morpholine] | * (*, 0%˜50%)
> 50000 nM | 5494 fold | 9.1 nM | CC(C)(F)C(=O)Nc1cccc(-c2cn(Cc3ccc(-c4nnc(C(F)F)o4)cn3)nn2)c1 [Compound 3987, N-(3-(1-((5-(5-(difluoromethyl)-1,3,4-oxadiazol-2-yl)pyridin-2-yl)methyl)-1H-1,2,3-triazol-4-yl)phenyl)-2-fluoro-2-methylpropanamide] | * (*, 0%˜50%)
> 50000 nM | 2631 fold | 19 nM | CC(=O)N1CCN(c2cccc(-c3cn(Cc4ccc(-c5nnc(C(F)F)o5)cn4)nn3)c2)CC1 [Compound 3990, 1-(4-(3-(1-((5-(5-(difluoromethyl)-1,3,4-oxadiazol-2-yl)pyridin-2-yl)methyl)-1H-1,2,3-triazol-4-yl)phenyl)piperazin-1-yl)ethan-1-one] | ** (**, 50%˜100%)

The next lines start with the compound.

SMILES | IC50 (human recombinant HDAC1) | HDAC6 selectivity (fold) (human recombinant HDAC6) | IC50 (human recombinant HDAC6) | Velocity distribution (%) [1]
Cn1ccc2ccc(-c3cn(Cc4ccc(-c5nnc(C(F)F)o5)cn4)nn3)cc21 [Compound 3914, 2-(difluoromethyl)-5-(6-((4-(1-methyl-1H-indol-6-yl)-1H-1,2,3-triazol-1-yl)methyl)pyridin-3-yl)-1,3,4-oxadiazole] | > 50000 nM | 1190 fold | 43.2 nM | * (*, 0%˜50%)
Cc1ccc(-c2cn(Cc3ccc(-c4nnc(C(F)F)o4)cn3)nn2)cn1 [Compound 3925, 2-(difluoromethyl)-5-(6-((4-(6-methylpyridin-3-yl)-1H-1,2,3-triazol-1-yl)methyl)pyridin-3-yl)-1,3,4-oxadiazole] | > 50000 nM | 1424 fold | 35.1 nM | *** (***, >100%)
CN(C)Cc1c[nH]c2cc(-c3cn(Cc4ccc(-c5nnc(C(F)F)o5)cn4)nn3)ccc12 [Compound 3962, 1-(6-(1-((5-(5-(difluoromethyl)-1,3,4-oxadiazol-2-yl)pyridin-2-yl)methyl)-1H-1,2,3-triazol-4-yl)-1H-indol-3-yl)-N,N-dimethylmethanamine] | > 50000 nM | 4629 fold | 10.8 nM | *** (***, >100%)
CN1CCN(Cc2c[nH]c3cc(-c4cn(Cc5ccc(-c6nnc(C(F)F)o6)cn5)nn4)ccc23)CC1 [Compound 3986, 2-(difluoromethyl)-5-(6-((4-(3-((4-methylpiperazin-1-yl)methyl)-1H-indol-6-yl)-1H-1,2,3-triazol-1-yl)methyl)pyridin-3-yl)-1,3,4-oxadiazole] | > 50000 nM | 6756 fold | 7.4 nM | *** (***, >100%)
